Results reported in patent publication US5814467A, “APO AI polypeptides, diagnostic methods and systems for quantifying APO AI, and therapeutic methods” (The Scripps Research Institute, priority 1994, dated 1998).
“Also recorded” adds a separate entry of the source.

What was measured:
[1] = tested on: monoclonal antibody AI-11; experiment: Solid-phase polypeptide direct binding ELISA; set-up: species or system mouse; conditions: peptide coated at 50 μg/ml; 0.5 μg/ml HRP-conjugated AI-11
Procedure: Apo AI polypeptides AI84-111, AI85-111, AI90-111, AI93-111, AI94-111, AI-94-125, AI96-111, AI99-111, and AI99-114 were tested for immunoreactivity with monoclonal antibody AI-11 in a direct binding ELISA. In the assay, 50 μg/ml of each polypeptide was dissolved in PBS to form a peptide coating solution, of which 150 μl was admixed into the wells of a flexible polyvinyl chloride microtiter plate (Immulon). The wells were then maintained about 16 to 20 at 4° C. to permit the peptide to absorb onto (coat) the walls of the wells. After removing the peptide coating solution by shaking, the wells were washed once with 350 μl of rinsing buffer (PBS containing 1 g/l BSA, 0.5 ml/l Tween 20, and 2 μl/1 aprotinin). Excess protein binding sites were blocked by admixing 200 μl of blocking buffer (PBS containing 3% BSA) into each well, maintaining the wells for 1 hour at 37° C., removing the blocking buffer by shaking, and then washing the wells 3 times as previously described. The plate was then dried for 1 hour at 37° C. followed by addition of 100 μl of PBS containing 0.5 μg/ml horseradish peroxidase conjugated AI-11 antibody to form a solid-liquid phase immunoreaction admixture. The resulting solid-liquid phase immunoreaction admixture was maintained at 20° C. for 1 hour to permit formation of a solid-phase polypeptide-containing immunoreaction product. The wells were then washed 3 times with rinsing buffer to remove unbound antibody.
The amount of immunoreaction product present in the solid phase was then determined by admixing two hundred microliters of OPD substrate into each well to form a developing-reaction admixture. The admixture was maintained for 30 minutes at about 20° C. Subsequently, 50 μl of 4N H2 SO4 were admixed into each well to stop the developing-reaction, and the resulting solution was assayed for absorbance at 450 nanometers using a microtiter plate reader (Dynatech) to detect the amount of formed immunoreaction product.

MAB AI-11 = experiment: Competitive RIA, MAB AI-11 binding to Apo AI/HDL-coated wells; set-up: species or system mouse; conditions: FIG. 5 and FIG. 6
Procedure: (§1) One hundred μl of PBS (0.15M NaCl, 0.01M NaPO4, pH 7.2) containing 10 μg/ml Apo AI/HDL were admixed to the wells of microtiter plates. The plates were maintained for 1 hour at 20° C. on a rotating platform to allow the Apo AI/HDL to adhere to the wells and form solid supports. After aspirating excess liquid from the wells, 200 μl of block solution (3% BSA, 3% NGS in PBS) was admixed to each well, and the wells were maintained for 30 minutes at 20° C. on a rotating platform. Subsequently, the blocking solution was removed by aspiration, and the wells were washed 3 times with SPRIA buffer.
(§2) To each well was then admixed first with 50 μl of PBS containing 3% BSA and various concentrations of competitor antigen, i.e., Apo AI/HDL peptide, and, second, 50 μl of MAB AI-4 in the form of clarified ascites diluted 1:11.25×10^5 in PBS containing 3% BSA to form competitive immunoreaction admixtures. In control wells, either competing antigen or antibody was replaced by PBS containing 3% BSA.
(§3) The immunoreaction admixtures were maintained about 16 hours at 4° C. on a rotating platform to permit formation of solid-phase immunoreaction products. After washing the wells as previously described, 100 μl of ^125 I-labeled goat anti-mouse Ig (^125 I-goat anti-mouse Ig diluted to 2×10^5 trichloracetic acid precipitable disintegrations per minute per 100 μl in PBS containing 3% BSA) were admixed to each well. The labeling immunoreaction admixtures so formed were maintained for 4 hours at 4° C. on a rotating platform. Subsequently, the wells were washed with SPRIA buffer as previously described, and the amount of ^125 I-labeled solid-phase immunoreaction product formed was determined in a gamma counter.
The immunoreactivity of MAB AI-11 for native Apo AI/HDL and various synthetic polypeptides was examined by a competitive RIA as described in Example 10A. […] Other peptides were evaluated for their ability to immunoreact with AI-1l MAE in competitive RIAs described herein.

MAB AI-4 = experiment: Competitive RIA, MAB AI-4 binding to Apo AI/HDL-coated wells; set-up: species or system mouse; conditions: FIG. 3 and FIG. 4
Procedure: The immunoreactivity of MAB AI-4 for native Apo AI/HDL and various synthetic polypeptides was examined by a competitive RIA performed as follows:
as §1, §2, §3
The ability of MAB AI-4 to immunoreact with Apo AI/HDL was compared by using Apo AI/HDL and various synthetic peptides as competitors in the above-described RIA. B/Bo represents corrected CPMs which are plotted against increasing concentrations of competition in μg/ml. B/Bo values are determined in the following formula: [formula] where 0% CPM is a measure of non-specific background based on CPM obtained in RIAs where wells coated with Apo AI/HDL are reacted with the labeled secondary antibody in the absence of primary antibody and competitor, and where 100% CPM is a measure of the maximum non-competed binding of primary antibody to the substrate coated to the wells. The more efficiently a competitor binds to the primary antibody, the lower the B/Bo values.

LCAT = target: T1, LCAT (Homo sapiens, UniProt P04180); conditions: cited from earlier work
T1 sequence (P04180 25-440): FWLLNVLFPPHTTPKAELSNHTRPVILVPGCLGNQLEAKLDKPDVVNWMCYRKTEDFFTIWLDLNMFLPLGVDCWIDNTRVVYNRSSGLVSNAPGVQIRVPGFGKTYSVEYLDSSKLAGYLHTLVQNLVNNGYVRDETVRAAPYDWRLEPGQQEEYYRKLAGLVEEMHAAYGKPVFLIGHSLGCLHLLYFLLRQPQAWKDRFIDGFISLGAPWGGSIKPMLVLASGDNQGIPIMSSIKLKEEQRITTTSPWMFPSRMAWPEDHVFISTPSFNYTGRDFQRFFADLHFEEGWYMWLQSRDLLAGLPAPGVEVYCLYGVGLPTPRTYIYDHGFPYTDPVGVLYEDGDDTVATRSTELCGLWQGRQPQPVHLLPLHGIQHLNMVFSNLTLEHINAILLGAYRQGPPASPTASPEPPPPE

[2] = tested on: monoclonal antibody AI-11; experiment: Competition ELISA, AI-11 binding to AI96-111-coated wells; set-up: species or system mouse; conditions: FIG. 2, competitor from 1 mg/ml, serial 2-fold dilutions
Procedure: To determine the relative effectiveness of AI-11 binding to Apo AI synthetic polypeptides, a competition ELISA was performed with AI 96-111 as the test synthetic polypeptide in comparison to Apo AI-containing serum and purified Apo AI/HDL. Microtiter plates were coated with AI 96-111 as described hereinbefore. After the drying step of the assay described hereinbefore, 50 μl of a fluid sample (i.e., an Apo AI-containing fluid sample) or standard (i.e., an Apo AI polypeptide) to be assayed were admixed into the polypeptide AI96-111-coated well simultaneously with 50 μl of HRPO-conjugated AI-11 antibody to form an immunoreaction admixture. In the assay described herein, 3 competitors were tested for their ability to compete for binding of AI-11 to the AI 96-111 polypeptide coated over a range of dilutions. The polypeptide AI 96-111 was added in separate coated wells at a starting concentration of 1 mg/ml and diluted 2-fold serially 6 times down to a final concentration of 0.0156 mg/ml. Serum samples as described in Example 2 were added at a starting dilution of 1:10 and diluted 2-fold serially 6 times down to a final dilution of […]. Apo AI/HDL as described in Example 2 was added at a starting concentration of 1 mg/ml and diluted 2-fold 5 times down to a final concentration of 0.031 mg/ml. The plate was then incubated for 30 minutes at room temperature. […]

| Substance | immunoreactivity with monoclonal antibody AI-11 in direct binding ELISA [1] | immunoreactivity with MAB AI-11, competition of binding to Apo AI/HDL (MAB AI-11) | immunoreactivity with MAB AI-4, competition of binding to Apo AI/HDL (MAB AI-4) | also measured |
| --- | --- | --- | --- | --- |
| AI99-111: Apo AI polypeptide, residues 99-111 (PYLDDFQKKWQEE) | not bound by the antibody |  |  |  |
| AI100-105: peptide derived from Apo AI, residues 100-105 (YLDDFQ) |  | do not immunoreact | did not react |  |
| AI101-111: peptide derived from Apo AI, residues 101-111 (LDDFQKKWQEE) |  |  | did not react |  |
| Apo AI fragment residues 148-185: Apo AI fragment residues 148-185 (Sparrow et al.) (MRDRARAHVDALRTHLAPYSDELRQRLAARLEALKENG; UniProt P02647 172-209, looked up, fragment) |  |  |  | involvement in activation of LCAT and lipid binding (LCAT; Sparrow et al. 1980): involved in both activation of LCAT and lipid binding |
| Apo AI residues 121-164: synthetic polypeptide corresponding to Apo AI residues 121-164 (Fukushima et al.) (PLRAELQEGARQKLHELQEKLSPLGEEMRDRARAHVDALRTHLA; UniProt P02647 145-188, looked up, fragment) |  |  |  | effectiveness relative to native Apo AI in the activation of cholesterol esterification (LCAT; Fukushima et al. 1980): 30% |
| Apo AI/HDL: Apo AI when it is present on HDL particles, isolated from plasma [reference compound] |  | competitively inhibit | competitively inhibit | competition for binding of AI-11 to coated AI96-111 [2]: competitively inhibit; competition for binding of AI-11 to coated AI96-111 ([2]; listed as purified HDL): greater affinity |
| KAKVQPYLDDXQKKWQEEMEL (KAKVQPYLDDFQKKWQEEMEL) [AI94-114] |  |  | partial reactivity |  |
| KAKVQPYLDDXQKKWQEEMELYRQKVEPLRAE (KAKVQPYLDDFQKKWQEEMELYRQKVEPLRAE) [AI94-125] | specifically immunoreactive | inhibited; also recorded: immunoreact | better competitor; also recorded: competitively inhibit; also recorded: immunoreacts |  |
| PYLDDXQKKWQEEMEL (PYLDDFQKKWQEEMEL) [AI99-114] | recognized by the antibody but with decreased specificity |  | partial reactivity; also recorded: immunoreacted |  |
| PYLDDXQKKWQEEMELYRQKVEP (PYLDDFQKKWQEEMELYRQKVEP) [AI99-121] |  | does not bind; also recorded: not a competitive inhibitor | nearly as well as Apo AI/HDL; also recorded: competitively inhibit; also recorded: immunoreacts |  |
